The text below walks through data of paper PMC3126777, “Selective anticancer activity of a hexapeptide with sequence homology to a non-kinase domain of Cyclin Dependent Kinase 4” (Molecular Cancer, 2011).

In data set [1] the test system is normal diploid human fibroblasts. In words: In-vitro morphological cell viability screen, normal fibroblasts. Conditions: for effect on normal diploid fibroblasts (in words): 5 mM. It counts as cell-based.
Method: (§2) A broad search for possible biological activity associated with the [sequence] peptide sequence was initially instituted by screening human bladder cancer cell lines for potential in-vitro morphological changes, compared to control cultures of normal diploid human fibroblasts at 4-8 passages from primary culture as controls. […] The peptides were dissolved, over a range of concentrations, in Ham's F12 + 10% FCS and introduced in 100 μL quantities to microwells containing 500 RT112 bladder cancer cells, or normal diploid human fibroblasts, in 200 μL of Ham's F12 + 10% FCS plated 24 hours earlier on 96 well plates.
Data set [2] has as its system H460 Human Non-small Cell Lung Cancer.
Data set [3] has as its system RT112 human bladder cancer cells. Nature of the data set: In-vitro morphological cell viability screen, RT112. The class given is cell-based. Conditions: for Cell Viability Human Bladder Cancer: RT112, dose 5.0 mM, Ham's F12 + 10% FCS, morphological appearance.
Method: as §2
In data set [4] the test system is Cdk1 and Cdk4 expression in RT112 cells. Nature of the data set: Western blotting of Cdk1 and Cdk4 expression, RT112. It counts as cell-based, human. Conditions: RT112, 5 mM linear end-capped peptide, 0 - 10 days, Western blot. From the text: This co-expression is unaffected by cytocidal doses of cisdiamminedichloroplatinum but can accompany spontaneous cancer cell death. Whether or not Cdk1/Cdk4 co-expression remained constant in cancer cells dying as a result of exposure to PRGPRP was thus examined by Western blotting.
(§1) All cell lines were from certified sources.
(In general: In western blotting, separated proteins are transferred to a membrane and probed.)

Data set [5] concerns RT112 human bladder cancer and H460 human non-small lung cancer cell lines. In words: Cell killing by cyclic amphiphilic peptides (viability and clonogenic survival). It counts as cell-based. To be noted: for improvement in selective cancer cell cytotoxicity: cyclic amphiphilic cassettes compared with the earlier PRGPRP peptides; for time at which cell killing reached a maximum: for the majority of cell lines.
Text: Attempts to limit proteolysis and improve cell uptake, by incorporating the hexameric peptide sequence into cyclic peptide cassettes were undertaken, initially without success (Table 3,X-XIII). Linear constructs attaching PRGPRP to a known cell-internalising amphiphilic sequence were also unsuccessful (Table 3,XIV and 3XV). […] Selective toxicity to these cancer cell lines, and not normal fibroblasts, was retained (Table 4).
as §1

Data set [6] concerns NCI-H460 cells. In words: Cellular ATP levels (CellTiter-Glo assay). The class given is cell-based, human. Conditions: H460, chloroquine, 96 hours after initial exposure (Figure 7B). As for the experimental part: Cellular ATP levels (CellTiter-Glo assay) Cells were grown, seeded and compound-treated as for the alamar Blue assay. A volume of the CellTiter-Glo reagent equal to the volume of cell culture media was added to the cells. Plates were mixed for 2 min on an orbital shaker to induce cell lysis before the plate was incubated at room temperature for 10 min to stabilize the signal. The luminescent signal was measured and the media only background was subtracted.
A general note: In ATP-based viability assays light output follows the ATP content of the culture.

The subject of data set [7] is NCI-H460 cells. In words: Total cellular protein (sulphorhodamine B assay). To be noted: H460, chloroquine, 96 hours after initial exposure (Figure 7B). It counts as cell-based, human. As to the method:
Control medium/alamar blue were removed and 200 μl PBS was added. […] Wells were rinsed with water and allowed to air dry. Cells were then stained in 0.4% SRB solution, before rinsing with 1% acetic acid and air drying. Incorporated dye was solubilised in 10 mM Tris and absorbance measured at 565 nm and 690 nm. Absorbance measurements at 690 nm were subtracted from the 565 nm readings to correct for multi-well plate absorbance.
A general note: Sulforhodamine B stains cellular protein and so reports cell mass.

Data set [8] relates to NCI-H460 cells. In words: Mitochondrial function (alamar blue). It counts as cell-based, human. Conditions: H460, chloroquine, 96 hours after initial exposure (Figure 7B). As for the experimental part: Mitochondrial function (alamar blue) NCI-H460 cells were grown in Ham's F12 media supplemented with 10% FCS. Cells were harvested and added to 96-well plates at densities of 250-1000. Compounds were made up from stock solutions and added directly to cells at the concentrations indicated. Cells were grown with compound for the indicated time at 37°C, 5% CO2, in a humidified atmosphere. Alamar Blue 10% (v/v) was then added and incubated for a further 4 h, and fluorescent product detected using the BMG FLUOstar plate reader. The media only background was subtracted and the data analysed as appropriate.

Data set [9] relates to H460 cells. In words: Autophagy Assay (Cyto-ID Green, flow cytometry). It counts as cell-based, human. To be noted: H460, 25 μM, positive control, 72 h and 96 h. As to the method:
Autophagy Assay was performed as recommended by the manufacturers' instructions (Enzo ENZ-51031-[…]). Briefly, H460 cells were seeded into 6 well plates at 2.5 × 10^5 and 1 × 10^5 cells/well. Immediately after cell plating, chloroquine or […] were added at the concentrations indicated. Following compound treatment, cells were washed once in PBS and resuspended in x1 Cyto-ID Green autophagy detection reagent and incubated at room temperature for 30 min. Immediately prior to analysis, propidium iodide (PI) solution was added to the cell suspension at a final concentration of 2.5 μg/ml, to assess cell death. Analysis was carried out using FACSCalibur (BD Biosciences). Cyto-ID Green autophagy reagent was measured in the FL-1 channel (530/30 nm bandpass filters with excitation at 488 nm) and PI measured in the FL-3 channel (670 nm longpass filters with excitation at 488 nm).

The test system of data set [10] is H460 human non-small cell lung cancer cells. In words: Necrosis assay by Trypan Blue exclusion, H460. The class given is cell-based. Conditions: H460, 200 μM, 2, 3, 4 and 7 days after plating, triplicate wells. As for the experimental part: Necrosis Assay Cells were plated in triplicate in 96 well plates at concentrations of 500 cells per well (HT1299, MCF-7) or 1000 cells per well (H460, MRC5-hTERT) in the presence or absence of the relevant compound and assessed by Trypan Blue exclusion At 2,3,4 and 7 days after plating. To assay, cells were trypsinised off, stained with trypan blue in isotonic medium and live and dead cells separately counted visually by haemocytomter. Each data point is the mean of results from triplicate wells (Solid lines - Live cells, Broken lines - Dead Cells; Blue - Control, Red - THR53 200 μM).

The mark [11] stands for this setting: dose 5.0 mM, Ham's F12 + 10% FCS, morphological appearance.

Entries after “also recorded” stand apart in the source; their conditions may differ. Read-outs that look alike come from different tables or passages of the source. Where only a bound is given, the exact number is not on record here.

As to Linear FPPRGPRPVKLALKLALK [XIV], in [1] (dose 200 μM), the “Cell Viability Normal Diploid Fibroblasts” value is reported as “+ + +”. For the same molecule, the “Cell Viability Human Non-small Cell Lung Cancer” value in data set [2] (H460, dose 200 μM) was “+ + +”.
“PRGPR [III, linear N'-capped synthetic peptide amide PRGPR]”: in data set [3], the “Cell Viability Human Bladder Cancer” value was “- - -”. Also, the “Cell Viability Normal Diploid Fibroblasts” value in [1] (setting [11]) is “+ + +”.
Turning to “PRRPGP [VI, linear end-capped hexapeptide PRRPGP, one arginine transposed]”, the “toxicity to RT112 human bladder cancer cells (in words)” value (shortened to “toxicity … (in words)”) in data set [3] (5 mM) was “markedly diminishes RT112 human bladder cancer cell killing”. Besides, in data set [3], the “Cell Viability Human Bladder Cancer” value is recorded as “+ + +”. Further, the “Cell Viability Normal Diploid Fibroblasts” value in [1] (setting [11]) is given as “+ + +”. The “Cdk1 expression compared to Cdk4” value in data set [4] was “not PRRPGP”.
As for “Cyc-GGGGGGPRGPRPGGGGGG] (head to tail) [XII]”, the “Cell Viability Normal Diploid Fibroblasts” value in data set [1] (dose 200 μM) was “+ + +”. Besides, the “Cell Viability Human Non-small Cell Lung Cancer” value in [2] (H460, dose 200 μM) is reported as “+ + +”.
Turning to “PEGPRP [VII, hexapeptide with arginine substituted by glutamic acid]”, the “toxicity … (in words)” value in data set [3] (5 mM) is reported as “lacked cytotoxic activity”. Moreover, the “Cell Viability Human Bladder Cancer” value in [3] is on record as “+ + +”. Besides, the “effect on normal diploid fibroblasts (in words)” value in [1] is reported as “no effect”. Further, the “Cell Viability Normal Diploid Fibroblasts” value in data set [1] (setting [11]) is listed as “+ + +”.
Turning to “Cyc-[PRGPRPVALKLALKLAL] (head to tail) [THR54]”, the “Cell Viability Normal Diploid Fibroblasts” value in data set [1] (dose 100 μM) was “+ + +”. In [5], the “improvement in selective cancer cell cytotoxicity” value is listed as “fifty- to a hundred-fold improvement” and the “time at which cell killing reached a maximum” value is at most 4 days. Further, in data set [2] (H460, dose 100 μM), the “Cell Viability Human Non-small Cell Lung Cancer” value was “_ _ _”.
Turning to “Cyc-[PRGPR(Me)PVALKLALKLAL] (head to tail) [XXI]”, the “Cell Viability Human Non-small Cell Lung Cancer” value in [2] (H460, dose 200 μM) is “++ +”.
Regarding “Cyc-[GGGGGGPRGPRPGGGGGG] (head to tail) [XI]”, the “Cell Viability Normal Diploid Fibroblasts” value in data set [1] (dose 200 μM) was “+ + +”. Moreover, in [2] (H460, dose 200 μM), the “Cell Viability Human Non-small Cell Lung Cancer” value was “+ + +”.
As to `CCN(CC)CCCC(C)Nc1ccnc2cc(Cl)ccc12` (centres unmarked) [Chloroquine, reference compound], the ATP levels result in data set [6] was “ubiquitous effect”. In [7], the total cellular protein entry was “ubiquitous effect”. For the same molecule, in [8], the mitochondrial oxidation/reduction result is on record as “ubiquitous effect”. For the same molecule, in [9], the “autophagy, Cyto-ID Green FL-1 peak” value is listed as “increase in autophagy”.
In the case of “Ac-PRGPRP-NH2 [THR1, linear N'-capped PRGPRP-amide hexapeptide]”, the “toxicity … (in words)” value in data set [3] (5 mM) is on record as “greater selective toxicity; also recorded: complete necrosis”. In [3], the “Cell Viability Human Bladder Cancer” value is “- - -”. Moreover, in [1], the “effect on normal diploid fibroblasts (in words)” value is recorded as “stimulates normal fibroblast growth; also recorded: increases the confluent cell density”. Moreover, the “Cell Viability Normal Diploid Fibroblasts” value in [1] (setting [11]) is “+ + + + +”. Also, the “Cdk1 expression compared to Cdk4” value in data set [4] is recorded as “progressive rise”.
With “PRGPEP [VIII, hexapeptide with arginine substituted by glutamic acid]”, in data set [3] (5 mM), the “toxicity … (in words)” value is “lacked cytotoxic activity”. For the same molecule, the “Cell Viability Human Bladder Cancer” value in data set [3] is listed as “+ + +”. For the same molecule, the “effect on normal diploid fibroblasts (in words)” value in [1] is recorded as “no effect”. The “Cell Viability Normal Diploid Fibroblasts” value in [1] (setting [11]) is “+ + +”.
With “Cyc-[AAGPGGPRGPRPGGPGAA] (head to tail) [XIII]”, in data set [1] (dose 200 μM), the “Cell Viability Normal Diploid Fibroblasts” value is “+ + +”. Also, in data set [2] (H460, dose 200 μM), the “Cell Viability Human Non-small Cell Lung Cancer” value is “+ + +”.
With Linear PRGPRPVALKLALKLAL [XV], the “Cell Viability Normal Diploid Fibroblasts” value in [1] (dose 200 μM) is “+ + +”. In addition, the “Cell Viability Human Non-small Cell Lung Cancer” value in [2] (H460, dose 200 μM) is listed as “+ + +”.
Consider “Cyc-[AAAGGGPRGPRPGGGAAA] (head to tail) [X]”, for which the “Cell Viability Normal Diploid Fibroblasts” value in data set [1] (dose 200 μM) is on record as “+ + +”. Besides, in [2] (H460, dose 200 μM), the “Cell Viability Human Non-small Cell Lung Cancer” value was “+ + +”.
For “Cyc-[PR(Me)GPRPVALKLALKLAL] (head to tail) [XX]”, in [2] (H460, dose 200 μM), the “Cell Viability Human Non-small Cell Lung Cancer” value is recorded as “+ +/-”.
For FPPRGPRPVQ [I], in data set [3] (1.0 mM), the “toxicity … (in words)” value is “selectively toxic”. For the same molecule, the “effect on normal fibroblasts (in words)” value in data set [1] (1.0 mM) was “partial sparing”. Moreover, the “Cell Viability Normal Diploid Fibroblasts” value in data set [1] (dose 1.0 mM, Ham's F12 + 10% FCS, morphological appearance) is given as “+ +/-”.
As for RGPR [V, shorter linear peptide RGPR], the “toxicity … (in words)” value in data set [3] (5 mM) is “inactive”. Besides, the “Cell Viability Human Bladder Cancer” value in data set [3] was “+ + +”. For the same molecule, the “Cell Viability Normal Diploid Fibroblasts” value in data set [1] (setting [11]) was “+ + +”.
Consider “Cyc-[FPPRRPGPVKLALKLALK] (head to tail) [THR53C]”, for which the “Cell Viability Normal Diploid Fibroblasts” value in data set [1] (dose 200 μM) is reported as “+ + +”. Moreover, the “necrosis detected by trypan blue uptake” value in [10] is “not with THR53C”. Further, in data set [2] (H460, dose 200 μM), the “Cell Viability Human Non-small Cell Lung Cancer” value is “+ + +”.
Take “PEGPEP [IX, hexapeptide with both arginines substituted by glutamic acid]”: the “Cell Viability Human Bladder Cancer” value in data set [3] is given as “+ + +”. For the same molecule, the “Cell Viability Normal Diploid Fibroblasts” value in data set [1] (setting [11]) is reported as “+ + +”.
On to “RGPRP [IV, linear N'-capped synthetic pentapeptide amide RGPRP]”, for which, in data set [3] (5 mM), the “toxicity … (in words)” value is “greater selective toxicity”. The “effect on normal diploid fibroblasts (in words)” value in data set [1] is reported as “sparing normal diploid fibroblasts”. Moreover, in [1] (setting [11]), the “Cell Viability Normal Diploid Fibroblasts” value is given as “+ + +”.
Turning to “Cyc-[PRGPRPvalklalklal] (head to tail) [THR79]”, the “Cell Viability Normal Diploid Fibroblasts” value in data set [1] (dose 50 μM) is “+ + +”. Also, in data set [5], the “improvement in selective cancer cell cytotoxicity” value is recorded as “fifty- to a hundred-fold improvement” and the “time at which cell killing reached a maximum” value is given as at most 4 days. The “Cell Viability Human Non-small Cell Lung Cancer” value in data set [2] (H460, dose 50 μM) was “_ _ _”.
